Test results from patent US8153643B2, “Quinazoline derivatives” (AstraZeneca AB, priority 2004, dated 2012).

Tests used:
[1] = target: T1, PDGFRβ tyrosine kinase (Homo sapiens, UniProt P09619); assay: In vitro enzyme assay (ELISA), PDGFRβ; format: biochemical; details: Test (a); ATP 2.8 μM; read-out: IC50 versus PDGFRβ tyrosine kinase
T1 construct: PDGFRα, PDGFRβ and KDR receptor cytoplasmic domains, obtained by expression of recombinant protein in insect cells; purchased Upstate Biotechnology Inc. 14-463; host or cells: Sf9 insect cells
Procedure: (§1) (a) In Vitro Enzyme Assays
(§2) The ability of test compounds to inhibit the phosphorylation of a tyrosine containing polypeptide substrate by the tyrosine kinase enzymes PDGFRα, PDGFRβ and KDR was assessed using conventional ELISA assays.
(§3) DNA encoding the PDGFRα, PDGFRβ or KDR receptor cytoplasmic domains may be obtained by total gene synthesis (International Biotechnology Lab., 1987, 5(3), 19-25) or by cloning. The DNA fragments may be expressed in a suitable expression system to obtain polypeptide with tyrosine kinase activity. For example, PDGFRα, PDGFRβ and KDR receptor cytoplasmic domains, obtained by expression of recombinant protein in insect cells, can be shown to display intrinsic tyrosine kinase activity. In the case of the VEGF receptor KDR (Genbank Accession No. L04947), a DNA fragment encoding most of the cytoplasmic domain, commencing with methionine 806 and including the termination codon may be cloned into a baculovirus transplacement vector [for example pAcYM1 (see The Baculovirus Expression System: A Laboratory Guide, L. A. King and R. D. Possee, Chapman and Hall, 1992) or pAc360 or pBlueBacHis (available from Invitrogen Corporation)]. This recombinant construct may be co-transfected into insect cells [for example Spodoptera frugiperda 21 (Sf21) or Spodoptera frugiperda 9 (Sf9)] with viral DNA (for example Pharmingen BaculoGold) to prepare recombinant baculovirus. Details of the methods for the assembly of recombinant DNA molecules and the preparation and use of recombinant baculovirus can be found in standard texts, for example Sambrook et al., 1989, Molecular cloning—A Laboratory Manual, 2nd edition, Cold Spring Harbour Laboratory Press and O'Reilly et al., 1992, Baculovirus Expression Vectors—A Laboratory Manual, W.H. Freeman and Co, New York). […]

[2] = target: T2, PDGFRα tyrosine kinase (Homo sapiens, UniProt P16234); assay: In vitro enzyme assay (ELISA), PDGFRα; format: biochemical; details: Test (a); ATP 14 μM; read-out: IC50 versus PDGFRα tyrosine kinase
T2 construct: PDGFRα, PDGFRβ and KDR receptor cytoplasmic domains, obtained by expression of recombinant protein in insect cells; purchased Upstate Biotechnology Inc. 14-467; host or cells: Sf9 insect cells
Procedure: as §1, §2, §3

[3] = target: T3, phospho-Tyr751 PDGFRβ (Homo sapiens, UniProt P09619); assay: In vitro phospho-Tyr751 PDGFRβ ELISA assay; format: cell-based; details: Test (b); MG63 osteosarcoma cells stimulated with PDGFBB; read-out: IC50 versus phospho-Tyr751 PDGFRβ
T3 construct: phosphorylation of PDGFR expressed on MG63 osteosarcoma cells; endogenous in cells; host or cells: MG63 osteosarcoma cells
Procedure: (b) In Vitro Phospho-Tyr751 PDGFRβ ELISA Assay
This assay uses a conventional EISA method to determine the ability of test compounds to inhibit phosphorylation of tyrosine in PDGFRβ.
An MG63 osteosarcoma cell line [American Type Culture Collection (ATCC) CCL 1427] was routinely maintained at 37° C. with 7.5% CO2 in Dulbecco's modified Eagle's growth medium (DMEM; Sigma-Aldrich; Catalogue No. D6546) containing 10% foetal calf serum (FCS; Sigma-Aldrich; Catalogue No. F7524) and 2 mM L-glutamine (Invitrogen Ltd., Paisley, UK; Catalogue No. 25030-024).
For the assay, the cells were detached from the culture flask using a trypsin/ethylenediaminetetraacetic acid (EDTA) mixture (Invitrogen Ltd.; Catalogue No. 15400-054) and resuspended in test media comprising DMEM without phenol red (Sigma-Aldrich; Catalogue No. D5921) containing 1% charcoal-stripped foetal calf serum (FCS) (Sigma-Aldrich; Catalogue No. F7524, stripped by incubation with dextran-coated activated charcoal at 55° C. for 30 minutes with continuous stirring followed by removal of the charcoal by centrifugation and filter sterilisation) and 2 mM L-glutamine (Invitrogen Ltd., Catalogue No. 25030-024) to give 6×10^4 cells per ml. Aliquots (100 μl) were seeded into each of the wells of columns 2-12 (excluding column 1) and rows B-G (excluding rows A and H) of a clear 96 well tissue culture plate (Corning Life Sciences, Koolhovenlaan, The Netherlands; Catalogue No. 3595) to give a density of about 6000 cells per well. Aliquots (100 μl) of culture media were placed in the outer wells to minimise edge effects. The cells were incubated overnight at 37° C. with 7.5% CO2 to allow the cells to adhere to the wells.
Test compounds were prepared as 10 mM stock solutions in DMSO and serially diluted as required with test media to give a range of concentrations. Aliquots (50 μl) of each compound concentration were added to the cells in each well. Control cells received a dilution of DMSO only. The cells were incubated for 90 minutes at 37° C. with 7.5% CO2.
The resultant cells were stimulated with PDGFBB using the following procedure. A lyophilised powder of PDGFBB, (Sigma-Aldrich; Catalogue No. P4306) was mixed with 4 mM aqueous hydrochloric acid containing 0.1% filter-sterilised BSA to provide a stock solution of 10 μg/ml of PDGFBB. A dilution of this stock solution into test medium provided a 200 ng/ml PDGFBB solution. Aliquots thereof (50 μl) were added to compound treated cells and to one set of control wells to give the “maximum” control. The “minimum” controls received media only. The cells were incubated at 37° C. with 7.5% CO2 for 5 minutes. […]

[4] = target: T4, KDR tyrosine kinase (Homo sapiens, UniProt P35968); assay: In vitro enzyme assay (ELISA), KDR; format: biochemical; details: Test (a); ATP 8 μM; read-out: IC50 versus KDR tyrosine kinase
T4 construct: encoding most of the cytoplasmic domain, commencing with methionine 806 and including the termination codon; made in house; host or cells: Sf9 insect cells (baculovirus)
Procedure: as §1, §2
DNA encoding the PDGFRα, PDGFRβ or KDR receptor cytoplasmic domains may be obtained by total gene synthesis (International Biotechnology Lab., 1987, 5(3), 19-25) or by cloning. The DNA fragments may be expressed in a suitable expression system to obtain polypeptide with tyrosine kinase activity. For example, PDGFRα, PDGFRβ and KDR receptor cytoplasmic domains, obtained by expression of recombinant protein in insect cells, can be shown to display intrinsic tyrosine kinase activity. In the case of the VEGF receptor KDR (Genbank Accession No. L04947), a DNA fragment encoding most of the cytoplasmic domain, commencing with methionine 806 and including the termination codon may be cloned into a baculovirus transplacement vector [for example pAcYM1 (see The Baculovirus Expression System: A Laboratory Guide, L. A. King and R. D. Possee, Chapman and Hall, 1992) or pAc360 or pBlueBacHis (available from Invitrogen Corporation)]. This recombinant construct may be co-transfected into insect cells [for example Spodoptera frugiperda 21 (Sf21) or Spodoptera frugiperda 9 (Sf9)] with viral DNA (for example Pharmingen BaculoGold) to prepare recombinant baculovirus. Details of the methods for the assembly of recombinant DNA molecules and the preparation and use of recombinant baculovirus can be found in standard texts, for example Sambrook et al., 1989, Molecular cloning—A Laboratory Manual, 2nd edition, Cold Spring Harbour Laboratory Press and O'Reilly et al., 1992, Baculovirus Expression Vectors—A Laboratory Manual, W.H. Freeman and Co, New York).
For expression, Sf9 cells were infected with plaque-pure KDR recombinant virus and harvested 48 hours later. […]

[5] = tested on: PDGF receptor kinase; details: Nature Reviews, 2002, 1, 493-502; Cancer Research, 1996, 56, 100-104; cited from earlier work
[6] = tested on: human glioblastoma lines U343 and U87; details: injection into the brains of nude mice of U343 and U87; Cancer Research, 2000, 60, 5143-5150; cited from earlier work
[7] = tested on: dermatofibrosarcoma protruberans cell cultures; details: Cancer Research, 2001, 61, 5778-5783; cited from earlier work

T4 sequence (P35968 786-1356 limits assumed): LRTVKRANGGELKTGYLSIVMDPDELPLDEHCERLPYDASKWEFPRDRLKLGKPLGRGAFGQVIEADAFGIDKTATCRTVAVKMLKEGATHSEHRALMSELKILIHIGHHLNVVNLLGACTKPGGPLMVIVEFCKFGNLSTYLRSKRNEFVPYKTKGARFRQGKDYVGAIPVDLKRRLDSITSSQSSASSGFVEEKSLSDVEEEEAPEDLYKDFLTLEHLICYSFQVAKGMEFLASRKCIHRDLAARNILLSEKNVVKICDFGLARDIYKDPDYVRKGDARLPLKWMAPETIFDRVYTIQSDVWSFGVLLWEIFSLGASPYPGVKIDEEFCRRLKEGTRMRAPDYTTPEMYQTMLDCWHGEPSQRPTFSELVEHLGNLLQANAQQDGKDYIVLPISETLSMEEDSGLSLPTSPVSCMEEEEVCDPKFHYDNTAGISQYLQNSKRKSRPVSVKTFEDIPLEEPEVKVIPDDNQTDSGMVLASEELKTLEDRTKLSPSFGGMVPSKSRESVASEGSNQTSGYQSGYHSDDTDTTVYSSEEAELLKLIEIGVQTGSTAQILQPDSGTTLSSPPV
T1 sequence (P09619 554-1106 limits assumed): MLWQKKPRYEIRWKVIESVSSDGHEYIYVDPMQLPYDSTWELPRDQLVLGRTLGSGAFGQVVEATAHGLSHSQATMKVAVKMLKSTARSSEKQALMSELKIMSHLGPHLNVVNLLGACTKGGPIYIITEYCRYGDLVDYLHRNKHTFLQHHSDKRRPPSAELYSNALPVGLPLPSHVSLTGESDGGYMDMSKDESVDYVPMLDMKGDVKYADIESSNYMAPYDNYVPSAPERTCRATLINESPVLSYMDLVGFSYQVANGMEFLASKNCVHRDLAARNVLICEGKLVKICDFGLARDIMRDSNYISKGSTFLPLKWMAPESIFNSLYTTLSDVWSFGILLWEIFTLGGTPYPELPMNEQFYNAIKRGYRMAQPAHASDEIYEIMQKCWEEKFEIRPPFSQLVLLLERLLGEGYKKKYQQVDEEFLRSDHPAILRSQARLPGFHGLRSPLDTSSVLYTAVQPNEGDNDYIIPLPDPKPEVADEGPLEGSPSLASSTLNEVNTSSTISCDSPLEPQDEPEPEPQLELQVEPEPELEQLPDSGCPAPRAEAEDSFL
T2 sequence (P16234 550-1089 limits assumed): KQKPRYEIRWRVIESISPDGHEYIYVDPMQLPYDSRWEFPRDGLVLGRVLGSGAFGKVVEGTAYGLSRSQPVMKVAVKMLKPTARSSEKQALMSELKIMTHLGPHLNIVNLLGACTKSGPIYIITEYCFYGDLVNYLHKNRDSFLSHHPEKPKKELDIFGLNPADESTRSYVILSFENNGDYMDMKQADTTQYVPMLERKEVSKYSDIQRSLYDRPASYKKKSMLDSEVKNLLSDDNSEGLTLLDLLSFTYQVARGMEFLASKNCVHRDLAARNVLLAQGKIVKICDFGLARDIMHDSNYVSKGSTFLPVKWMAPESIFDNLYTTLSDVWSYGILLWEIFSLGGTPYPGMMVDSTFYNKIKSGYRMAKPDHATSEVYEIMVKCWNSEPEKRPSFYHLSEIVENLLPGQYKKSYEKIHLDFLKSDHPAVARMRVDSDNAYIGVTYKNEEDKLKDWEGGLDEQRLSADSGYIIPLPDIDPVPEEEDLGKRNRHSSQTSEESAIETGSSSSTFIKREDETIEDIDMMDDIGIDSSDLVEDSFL
T3 sequence (P09619 33-1106): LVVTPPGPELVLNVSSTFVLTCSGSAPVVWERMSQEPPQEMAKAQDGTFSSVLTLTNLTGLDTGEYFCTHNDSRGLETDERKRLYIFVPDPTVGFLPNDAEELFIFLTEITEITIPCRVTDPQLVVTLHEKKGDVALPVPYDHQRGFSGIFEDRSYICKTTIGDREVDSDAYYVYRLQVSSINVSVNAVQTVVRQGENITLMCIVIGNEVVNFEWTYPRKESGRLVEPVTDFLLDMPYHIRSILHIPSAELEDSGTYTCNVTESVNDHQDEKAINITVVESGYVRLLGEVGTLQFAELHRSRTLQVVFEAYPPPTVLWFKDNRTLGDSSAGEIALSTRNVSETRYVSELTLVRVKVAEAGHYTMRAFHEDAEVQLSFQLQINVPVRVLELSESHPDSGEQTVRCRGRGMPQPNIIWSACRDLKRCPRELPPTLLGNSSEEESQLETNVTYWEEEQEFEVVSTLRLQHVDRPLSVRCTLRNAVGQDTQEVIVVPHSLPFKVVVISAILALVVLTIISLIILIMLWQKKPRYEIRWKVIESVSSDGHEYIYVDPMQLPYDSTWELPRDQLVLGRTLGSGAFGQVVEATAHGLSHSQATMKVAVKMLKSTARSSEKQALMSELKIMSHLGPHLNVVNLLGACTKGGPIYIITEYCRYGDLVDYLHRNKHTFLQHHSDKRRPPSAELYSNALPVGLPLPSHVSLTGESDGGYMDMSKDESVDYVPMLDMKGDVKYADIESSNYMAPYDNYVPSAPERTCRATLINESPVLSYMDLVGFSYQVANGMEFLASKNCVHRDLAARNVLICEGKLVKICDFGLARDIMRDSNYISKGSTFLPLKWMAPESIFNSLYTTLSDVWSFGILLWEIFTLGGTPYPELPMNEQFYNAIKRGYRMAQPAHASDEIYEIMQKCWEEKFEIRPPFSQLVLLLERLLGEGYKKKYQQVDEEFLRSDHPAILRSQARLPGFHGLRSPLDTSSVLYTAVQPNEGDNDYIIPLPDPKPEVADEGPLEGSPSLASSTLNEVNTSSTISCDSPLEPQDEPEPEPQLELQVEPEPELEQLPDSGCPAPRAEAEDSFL

| Structure (SMILES) | IC50 [1] [nM] | IC50 [2] [nM] | IC50 [3] [nM] | IC50 [4] [nM] | PDGF receptor kinase activity [5] | growth of glioblastoma tumours [6] | in vivo growth of dermatofibrosarcoma protruberans cell cultures [7] |
| --- | --- | --- | --- | --- | --- | --- | --- |
| COc1cc2ncnc(Oc3ccc(CC(=O)Nc4ccc(N(C)C)cn4)cc3)c2cc1OC [Example 6, N-(5-dimethylaminopyridin-2-yl)-2-[4-(6,7-dimethoxyquinazolin-4-yloxy)phenyl]acetamide] | ~300 | ~400 | ~0.5 | ~10 | – | – | – |
| Cc1ccc(NC(=O)c2ccc(CN3CCN(C)CC3)cc2)cc1Nc1nccc(-c2cccnc2)n1 [imatinib] | – | – | – | – | inhibit PDGF receptor kinase activity | inhibits the growth | inhibits the in vivo growth |
| COc1cc2ncnc(Oc3ccc(CC(=O)Nc4cccc(N(C)C)n4)cc3)c2cc1OC [Compound 4 within Example 10, N-(6-dimethylaminopyridin-2-yl)-2-[4-(6,7-dimethoxyquinazolin-4-yloxy)phenyl]acetamide] | – | – | ~1 | ~10 | – | – | – |
| COc1cc2ncnc(Oc3ccc(CC(=O)Nc4nc(C)cs4)cc3)c2cc1OC [Compound 17 within Example 9, N-(4-methylthiazol-2-yl)-2-[4-(6,7-dimethoxyquinazolin-4-yloxy)phenyl]acetamide] | ~100 | ~300 | ~2 | – | – | – | – |
| COc1cccc(NC(=O)Cc2ccc(Oc3ncnc4cc(OC)c(OC)cc34)cc2)c1 [Example 1, N-(3-methoxyphenyl)-2-[4-(6,7-dimethoxyquinazolin-4-yloxy)phenyl]acetamide] | ~60 | ~250 | ~1 | ~1 | – | – | – |
